Assay results: ChEMBL document CHEMBL1201862, “PubChem BioAssay data set” (2004)
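Step 1: Grow cells in 96-well plates. Step 2: Expose to compound for 48 hours at 5 concentrations. Step 3: Interpolate endpoints linearly; if unreached, use highest concentration. GI50 = concentration required for 50% inhibition of growth.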 Calls of active or inactive are those of the source. Rule as the data show it: active = GI50 up to about 1.1 µM and inactive = higher.

Assays:
Test in all cases: inhibition of tumour cell growth, NCI panel, 48 h
UO-31 = test system: UO-31
HL-60 = test system: HL-60
A549 = test system: A549
OVCAR-8 = test system: OVCAR-8
HCC 2998 = test system: HCC 2998
TK-10 = test system: TK-10
MDA-MB-435 = test system: MDA-MB-435
EKVX = test system: EKVX
NCI-H522 = test system: NCI-H522
NCI/ADR-RES = test system: NCI/ADR-RES
OVCAR-5 = test system: OVCAR-5
NCI-H460 = test system: NCI-H460
ACHN = test system: ACHN
SK-OV-3 = test system: SK-OV-3
K562 = test system: K562
SK-MEL-28 = test system: SK-MEL-28
SK-MEL-2 = test system: SK-MEL-2
LOX IMVI = test system: LOX IMVI
UACC-257 = test system: UACC-257
HOP-92 = test system: HOP-92

SMILES	GI50 (UO-31)	GI50 (HL-60)	GI50 (A549)	GI50 (OVCAR-8)	GI50 (HCC 2998)	GI50 (TK-10)	GI50 (MDA-MB-435)	GI50 (EKVX)	GI50 (NCI-H522)	GI50 (NCI/ADR-RES)	GI50 (OVCAR-5)	GI50 (NCI-H460)	GI50 (ACHN)	GI50 (SK-OV-3)	GI50 (K562)	GI50 (SK-MEL-28)	GI50 (SK-MEL-2)	GI50 (LOX IMVI)	GI50 (UACC-257)	GI50 (HOP-92)
COc1ccc(N2C(=O)C3c4[nH]c5ccccc5c4C4CCCCCCCC4C3C2=O)cc1 (centres undefined)	> 10 µM (inactive)	> 10 µM (inactive)	> 10 µM (inactive)	> 10 µM (inactive)	> 10 µM (inactive)	> 10 µM (inactive)	> 10 µM (inactive)	> 10 µM (inactive)	> 10 µM (inactive)	> 10 µM (inactive)	> 10 µM (inactive)	> 10 µM (inactive)	> 10 µM (inactive)	> 10 µM (inactive)	> 10 µM (inactive)	> 10 µM (inactive)	> 10 µM (inactive)			
CC(NC(CC12CC3CC(CC(C3)C1)C2)C(N)=O)c1ccccc1 (centres undefined)	19.2 µM (inactive)	10.1 µM (inactive)	39.8 µM (inactive)	23.6 µM (inactive)	17.5 µM (inactive)	26.6 µM (inactive)	16.7 µM (inactive)	23.4 µM (inactive)	18 µM (inactive)	17.8 µM (inactive)	17.5 µM (inactive)	17.4 µM (inactive)	20.9 µM (inactive)	5.27 µM (inactive)	17.5 µM (inactive)	20 µM (inactive)		15.7 µM (inactive)	15.2 µM (inactive)	
NNc1[nH]c(=S)[nH]c1C(N)=O	> 100 µM (inactive)	> 100 µM (inactive)	> 100 µM (inactive)	> 100 µM (inactive)	> 100 µM (inactive)	> 100 µM (inactive)	> 100 µM (inactive)	> 100 µM (inactive)	> 100 µM (inactive)	> 100 µM (inactive)	> 100 µM (inactive)	> 100 µM (inactive)		> 100 µM (inactive)		> 100 µM (inactive)	> 100 µM (inactive)	> 100 µM (inactive)	> 100 µM (inactive)	
CCOP(=O)(OCC)C(c1ccc(F)cc1)N(C(=O)NC(F)(F)F)c1ccc(F)cc1 (centres undefined)	> 100 µM (inactive)	> 100 µM (inactive)	> 100 µM (inactive)	> 100 µM (inactive)	> 100 µM (inactive)	> 100 µM (inactive)	> 100 µM (inactive)	> 100 µM (inactive)	> 100 µM (inactive)	> 100 µM (inactive)	> 100 µM (inactive)	> 100 µM (inactive)	> 100 µM (inactive)		> 100 µM (inactive)	> 100 µM (inactive)		> 100 µM (inactive)	> 100 µM (inactive)	
Cc1cc(C#N)c(Nc2ccc(F)cc2[N+](=O)[O-])s1	> 100 µM (inactive)		> 100 µM (inactive)	> 100 µM (inactive)	> 100 µM (inactive)		> 100 µM (inactive)	> 100 µM (inactive)	> 100 µM (inactive)	> 100 µM (inactive)	> 100 µM (inactive)	> 100 µM (inactive)	83.8 µM (inactive)	> 100 µM (inactive)	> 100 µM (inactive)	> 100 µM (inactive)			> 100 µM (inactive)	33.4 µM (inactive)
O=C(N/N=C\c1ccc([N+](=O)[O-])cc1)Nc1ccccc1	> 100 µM (inactive)	> 100 µM (inactive)		> 100 µM (inactive)		> 100 µM (inactive)	> 100 µM (inactive)			> 100 µM (inactive)	> 100 µM (inactive)	> 100 µM (inactive)		> 100 µM (inactive)	> 100 µM (inactive)	> 100 µM (inactive)	> 100 µM (inactive)	> 10 µM (inactive)	> 100 µM (inactive)	> 100 µM (inactive)
COc1ccc2c(C)cc(N/N=C/c3ccc(OC)c4ccccc34)nc2c1	12.6 µM (inactive)	20.8 µM (inactive)	18.6 µM (inactive)	18.5 µM (inactive)		17.3 µM (inactive)	11.2 µM (inactive)	17.7 µM (inactive)	12 µM (inactive)	14.4 µM (inactive)	14 µM (inactive)	16.6 µM (inactive)	4.48 µM (inactive)	17.3 µM (inactive)	10.1 µM (inactive)	16.1 µM (inactive)	19.2 µM (inactive)	3.71 µM (inactive)	19.3 µM (inactive)	11.2 µM (inactive)
c1ccc(C(=NCCC2CNc3ccccc32)c2ccccc2)cc1 (centres undefined)	> 100 µM (inactive)		> 100 µM (inactive)	> 100 µM (inactive)	> 100 µM (inactive)		> 100 µM (inactive)	> 100 µM (inactive)	> 100 µM (inactive)	> 100 µM (inactive)	> 100 µM (inactive)	> 100 µM (inactive)	> 100 µM (inactive)	> 100 µM (inactive)	> 100 µM (inactive)	> 100 µM (inactive)	> 100 µM (inactive)		> 100 µM (inactive)	> 100 µM (inactive)
CN1CCC(CNC(=O)CCCCCCCCC(=O)NCC2(c3ccccc3)CCN(C)CC2)(c2ccccc2)CC1	> 100 µM (inactive)	> 100 µM (inactive)	> 100 µM (inactive)	> 100 µM (inactive)	> 100 µM (inactive)	> 100 µM (inactive)	> 100 µM (inactive)	8.22 µM (inactive)	> 100 µM (inactive)	> 100 µM (inactive)	> 100 µM (inactive)	> 100 µM (inactive)	> 100 µM (inactive)	> 100 µM (inactive)	77.1 µM (inactive)	> 100 µM (inactive)	> 100 µM (inactive)	> 100 µM (inactive)	38.8 µM (inactive)	
CN(C)CC1CCCCCCCCCC(CN(C)C)C1=O (centres undefined)	> 38.7 µM (inactive)	15.1 µM (inactive)	> 34.8 µM (inactive)	> 32.3 µM (inactive)	> 100 µM (inactive)	> 37.8 µM (inactive)	4.94 µM (inactive)	> 39.9 µM (inactive)	2.7 µM (inactive)	6.43 µM (inactive)	> 49.1 µM (inactive)	> 36.8 µM (inactive)	> 31 µM (inactive)	> 28.8 µM (inactive)		32.1 µM (inactive)	> 42.9 µM (inactive)		23.1 µM (inactive)	20.4 µM (inactive)
Cc1cn(C2CC(n3cc(Cn4cc(I)c(=O)[nH]c4=O)nn3)C(CO)O2)c(=O)[nH]c1=O (centres undefined)	> 10 µM (inactive)	0.0119 µM (active)	> 100 µM (inactive)	> 100 µM (inactive)	> 100 µM (inactive)	> 100 µM (inactive)	> 100 µM (inactive)			> 100 µM (inactive)	> 100 µM (inactive)		> 100 µM (inactive)	> 100 µM (inactive)		> 100 µM (inactive)	> 100 µM (inactive)		> 100 µM (inactive)	> 100 µM (inactive)
O=c1c2cn[nH]c2nc2scc(-c3ccc(Cl)cc3)n12	> 100 µM (inactive)		> 100 µM (inactive)	> 100 µM (inactive)	> 100 µM (inactive)	> 100 µM (inactive)	> 100 µM (inactive)	> 100 µM (inactive)	> 100 µM (inactive)	> 100 µM (inactive)	> 100 µM (inactive)	> 100 µM (inactive)	> 100 µM (inactive)	> 100 µM (inactive)	> 100 µM (inactive)	> 100 µM (inactive)	53.6 µM (inactive)	> 100 µM (inactive)	> 100 µM (inactive)	
Fc1cc(-c2cc(-c3ccccc3)no2)c(Cl)cc1Cl	> 38.5 µM (inactive)	19.7 µM (inactive)	10.3 µM (inactive)	> 26.8 µM (inactive)		> 34.7 µM (inactive)	11.4 µM (inactive)	11.4 µM (inactive)	14.9 µM (inactive)	54.8 µM (inactive)	1.29 µM (inactive)	16.7 µM (inactive)	> 35.2 µM (inactive)	> 32.5 µM (inactive)	29.4 µM (inactive)	> 29.8 µM (inactive)	23.6 µM (inactive)	13.2 µM (inactive)	> 56.8 µM (inactive)	7.69 µM (inactive)
COc1cc(C(c2cc(OC)c(OC)c(OC)c2)N2C(=O)CCC2C(=O)O)cc(OC)c1OC (centres undefined)	> 100 µM (inactive)	> 100 µM (inactive)	> 100 µM (inactive)	> 100 µM (inactive)			> 100 µM (inactive)	> 100 µM (inactive)	> 100 µM (inactive)	> 100 µM (inactive)	> 100 µM (inactive)	> 100 µM (inactive)	> 100 µM (inactive)	> 100 µM (inactive)	> 100 µM (inactive)	> 100 µM (inactive)	> 100 µM (inactive)		> 100 µM (inactive)	> 100 µM (inactive)
CC(=O)Oc1c(C)c2c(c3ccccc13)OC(C)(C)C2	18.2 µM (inactive)	22.4 µM (inactive)	18.1 µM (inactive)	16.8 µM (inactive)	16.5 µM (inactive)	18.6 µM (inactive)	17.2 µM (inactive)	19.8 µM (inactive)	18.4 µM (inactive)	21 µM (inactive)	19.5 µM (inactive)	19.2 µM (inactive)	17.3 µM (inactive)	30.5 µM (inactive)	29.2 µM (inactive)	18.8 µM (inactive)	18 µM (inactive)		12.2 µM (inactive)	17.8 µM (inactive)
Cc1cc(Nc2ccc(S(=O)(=O)O)c3cc(S(=O)(=O)O)cc(S(=O)(=O)O)c23)c2ccccc2n1	> 100 µM (inactive)	> 100 µM (inactive)	> 100 µM (inactive)	> 100 µM (inactive)	> 100 µM (inactive)	> 100 µM (inactive)	> 100 µM (inactive)	> 100 µM (inactive)	> 100 µM (inactive)	> 100 µM (inactive)	> 100 µM (inactive)	> 100 µM (inactive)	> 100 µM (inactive)	> 100 µM (inactive)		> 100 µM (inactive)	> 100 µM (inactive)	> 100 µM (inactive)	> 100 µM (inactive)	
